Laboratory results from patent publication US20050209278A1, “Piperidinyl- and piperazinyl-sulfonylmethyl hydroxamic acids and their use as protease inhibitors” (priority 2002, published 2005).
pKi: −log10 of the molar value. Counter-ions that a name gives are not always drawn. Like-named read-outs stand apart in the source and are kept apart here.

Tests used:
Type in all cases: biochemical
MMP-1 = target: T1, MMP-1 (Homo sapiens, UniProt P03956); assay: MMP-1 inhibition (in vitro Ki)
T1 construct: made in house; host or cells: MMP-1-transfected HT-1080 cells (spent media)
T1 sequence (P03956 100-469): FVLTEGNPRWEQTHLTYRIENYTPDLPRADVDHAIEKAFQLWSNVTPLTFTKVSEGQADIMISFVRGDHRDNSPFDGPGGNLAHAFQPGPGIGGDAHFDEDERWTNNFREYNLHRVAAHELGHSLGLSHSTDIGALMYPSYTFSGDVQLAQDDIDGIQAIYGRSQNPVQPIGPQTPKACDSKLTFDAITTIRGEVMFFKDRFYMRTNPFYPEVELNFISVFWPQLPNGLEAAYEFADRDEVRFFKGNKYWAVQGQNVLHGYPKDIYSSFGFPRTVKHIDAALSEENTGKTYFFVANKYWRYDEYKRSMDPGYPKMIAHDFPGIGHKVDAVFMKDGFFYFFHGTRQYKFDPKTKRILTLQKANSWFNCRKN

MMP-9 = target: T2, MMP-9 (Homo sapiens, UniProt P14780); assay: MMP-9 inhibition (in vitro Ki)
T2 construct: made in house; host or cells: MMP-9-transfected HT1080 cells (spent media)
T2 sequence (P14780 107-707 limits assumed): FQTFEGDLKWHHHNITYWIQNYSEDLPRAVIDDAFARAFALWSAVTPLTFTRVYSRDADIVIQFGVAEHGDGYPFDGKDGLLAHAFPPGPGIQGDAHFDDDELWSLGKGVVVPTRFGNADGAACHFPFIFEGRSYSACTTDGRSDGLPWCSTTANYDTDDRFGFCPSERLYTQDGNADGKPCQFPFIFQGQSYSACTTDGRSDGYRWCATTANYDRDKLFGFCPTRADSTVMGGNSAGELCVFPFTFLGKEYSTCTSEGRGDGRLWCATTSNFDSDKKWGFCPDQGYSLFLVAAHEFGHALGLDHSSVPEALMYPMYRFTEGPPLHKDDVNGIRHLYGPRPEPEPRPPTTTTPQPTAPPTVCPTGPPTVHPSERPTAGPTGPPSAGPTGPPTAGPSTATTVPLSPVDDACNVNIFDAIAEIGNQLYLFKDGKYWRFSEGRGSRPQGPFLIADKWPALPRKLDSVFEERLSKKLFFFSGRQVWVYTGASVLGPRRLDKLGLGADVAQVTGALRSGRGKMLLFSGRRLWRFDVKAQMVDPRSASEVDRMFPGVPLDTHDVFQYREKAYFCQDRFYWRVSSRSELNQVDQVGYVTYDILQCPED

MMP-2 = target: T3, MMP-2 (Homo sapiens, UniProt P08253); assay: MMP-2 inhibition (in vitro Ki)
T3 construct: made in house; host or cells: MMP-2-transfected p2AHT2 cells
T3 sequence (P08253 110-660): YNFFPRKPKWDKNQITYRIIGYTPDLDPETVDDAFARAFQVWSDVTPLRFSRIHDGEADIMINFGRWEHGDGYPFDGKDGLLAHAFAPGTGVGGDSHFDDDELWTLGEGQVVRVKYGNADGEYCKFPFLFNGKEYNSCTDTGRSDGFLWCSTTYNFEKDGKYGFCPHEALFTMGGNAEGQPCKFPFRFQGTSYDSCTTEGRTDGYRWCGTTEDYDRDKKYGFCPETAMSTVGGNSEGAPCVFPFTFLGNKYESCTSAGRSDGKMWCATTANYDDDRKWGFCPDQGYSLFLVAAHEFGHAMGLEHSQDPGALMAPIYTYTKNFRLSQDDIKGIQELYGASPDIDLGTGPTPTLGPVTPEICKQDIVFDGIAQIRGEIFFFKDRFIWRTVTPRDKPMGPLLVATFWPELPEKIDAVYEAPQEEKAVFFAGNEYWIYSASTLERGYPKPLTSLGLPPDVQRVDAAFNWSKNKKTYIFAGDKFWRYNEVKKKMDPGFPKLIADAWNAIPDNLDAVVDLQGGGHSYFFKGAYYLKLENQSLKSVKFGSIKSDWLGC

MMP-14 = target: T4, MMP-14 (Homo sapiens, UniProt P50281); assay: MMP-14 inhibition (in vitro Ki)
T4 construct: The catalytic domain enzyme was expressed in E. coli inclusion bodies, solubilized in urea; made in house

MMP-13 = target: T5, MMP-13 (Homo sapiens, UniProt P45452); assay: MMP-13 inhibition (in vitro Ki)
T5 construct: made in house; host or cells: baculovirus / insect cells

[1] = Table 9, read-out: MMP-1 Ki (IC-50)
[2] = Table 9, read-out: MMP-9 Ki (IC-50)
[3] = Table 9, read-out: MMP-2 Ki (IC-50)
[4] = Table 9, read-out: MMP-14 Ki (IC-50)
[5] = Table 9, read-out: MMP-13 Ki (IC-50)

Row | Structure (SMILES) | pKi (MMP-1; [1]) | pKi (MMP-9; [2]) | pKi (MMP-2; [3]) | pKi (MMP-14; [4]) | pKi (MMP-13; [5]) | pKi (MMP-1; Table 8, read-out: MMP-1 Ki) | pKi (MMP-9; Table 8, read-out: MMP-9 Ki) | pKi (MMP-2; Table 8, read-out: MMP-2 Ki) | pKi (MMP-14; Table 8, read-out: MMP-14 Ki) | pKi (MMP-13; Table 8, read-out: MMP-13 Ki)
1 | CCCOCCCCC1CCN(S(=O)(=O)C2(C(=O)NO)CCOCC2)CC1 [Example A39, 4-[4-(4-propoxy-butyl)-piperidine-1-sulfonyl]-tetrahydro-pyran-4-carboxylic Acid Hydroxyamide] |  |  |  |  |  | 5.70 | 8.00 | 7.90 | 5.85 | 8.70
2 | CCCCCOCCC1CCN(S(=O)(=O)C2(C(=O)NO)CCOCC2)CC1 [Example A47, 4-[4-(2-pentyloxy-ethyl)-piperidine-1-sulfonyl]-tetrahydro-pyran-4-carboxylic Acid Hydroxyamide] |  |  |  |  |  | < 5.00 | 7.99 | 7.73 | < 5.00 | 7.90
3 | O=C(NO)C1(S(=O)(=O)N2CCC(OCCCCCCC(F)(F)F)CC2)CCOCC1 [Example A48, 4-[4-(7,7,7-trifluoro-heptyloxy)-piperidine-1-sulfonyl]-tetrahydro-pyran-4-carboxylic Acid Hydroxyamide] |  |  |  |  |  | < 5.00 | 8.08 | 8.46 | 5.57 | 8.95
4 | O=C(NO)C1(S(=O)(=O)N2CCC(CCCCCCC(F)(F)C(F)(F)F)CC2)CCOCC1 [Example A51, 4-[4-(7,7,8,8,8-pentafluoro-octyl)-piperidine-1-sulfonyl]-tetrahydro-pyran-4-carboxylic Acid Hydroxyamide] |  |  |  |  |  | 5.29 | 9.00 | 9.57 | 5.90 | 9.57
5 | O=C(NO)C1(S(=O)(=O)N2CCC(CCCCCC(F)(F)F)CC2)CCOCC1 [Example A43, 4-[4-(6,6,6-Trifluoro-hexyl)-piperidine-1-sulfonyl]-tetrahydro-pyran-4-carboxylic Acid Hydroxyamide] |  |  |  |  |  | 5.51 | 9.72 | 9.48 | 6.12 | 9.24
6 | CN(C(=O)CCCCC1CCN(S(=O)(=O)C2(C(=O)NO)CCOCC2)CC1)C1CCCCC1 [Example A96] | 5.95 | 6.14 | 6.62 | < 5.00 | 8.96 |  |  |  |  | 
7 | O=C(NO)C1(S(=O)(=O)N2CCC(c3ccc(OCC(F)(F)F)cn3)CC2)CCOCC1 [Example A57, N-hydroxy-4-({4-[5-(2,2,2-trifluoroethoxy)pyridin-2-yl]piperidin-1-yl}sulfonyl)tetrahydro-2H-pyran-4-carboxamide Hydrochloride] |  |  |  |  |  | 5.80 | 9.32 | 9.28 | 5.69 | 9.47
8 | O=C(NO)C(CC1CC1)(CC1CC1)S(=O)(=O)N1CCC(c2ccc(CCC(F)(F)F)cn2)CC1 [Example A84] | 5.01 | 9.13 | 8.54 | 5.27 | 8.74 |  |  |  |  | 
9 | O=C(NO)C1(S(=O)(=O)N2CCC(CCCCC(F)(F)C(F)(F)F)CC2)CCOCC1 [Example A53, 4-[4-(5,5,6,6,6-pentafluoro-hexyl)-piperidine-1-sulfonyl]-tetrahydro-pyran-4-carboxylic Acid Hydroxyamide] |  |  |  |  |  | 5.54 | 8.61 | 8.96 | 5.63 | 8.61
10 | O=C(NO)C1(S(=O)(=O)N2CCC(CCOCCCC(F)(F)F)CC2)CCOCC1 [Example A45, 4-{4-[2-(4,4,4-trifluoro-butoxy)-ethyl]-piperidine-1-sulfonyl}-tetrahydro-pyran-4-carboxylic Acid Hydroxyamide] |  |  |  |  |  | < 5.00 | 7.77 | 7.63 | < 5.00 | 7.91
11 | O=C(NO)C1(S(=O)(=O)N2CCC(c3ccc(OCC(F)(F)C(F)F)cn3)CC2)CCOCC1 [Example A59, N-hydroxy-4-({4-[5-(2,2,3,3-tetrafluoropropoxy)pyridin-2-yl]piperidin-1-yl}sulfonyl)tetrahydro-2H-pyran-4-carboxamide Hydrochloride] |  |  |  |  |  | 5.78 | 8.81 | 9.12 | 5.29 | 9.21
12 | O=C(/C=C/C=C/C1CCN(S(=O)(=O)C2(C(=O)NO)CCOCC2)CC1)N1CCc2ccccc2C1 [Example A75] | 5.21 | 6.30 | 6.64 | < 5.00 | 9.39 |  |  |  |  | 
13 | CN(Cc1ccco1)C(=O)CCCCC1CCN(S(=O)(=O)C2(C(=O)NO)CCOCC2)CC1 [Example A99] | 6.45 | 6.62 | 7.29 | < 5.00 | 9.10 |  |  |  |  | 

Now from value to compound:

Row | pKi (MMP-1; [1]) | pKi (MMP-9; [2]) | pKi (MMP-2; [3]) | pKi (MMP-14; [4]) | pKi (MMP-13; [5]) | pKi (MMP-1; Table 8, read-out: MMP-1 Ki) | pKi (MMP-9; Table 8, read-out: MMP-9 Ki) | pKi (MMP-2; Table 8, read-out: MMP-2 Ki) | pKi (MMP-14; Table 8, read-out: MMP-14 Ki) | pKi (MMP-13; Table 8, read-out: MMP-13 Ki) | Structure (SMILES)
14 | < 5.00 | 5.77 | 6.44 | < 5.00 | 8.04 |  |  |  |  |  | CN(CC1CCCCC1)C(=O)CCCC1CCN(S(=O)(=O)C2(C(=O)NO)CCOCC2)CC1 [Example A111]
15 | 5.83 | 5.79 | 6.65 | < 5.00 | 8.60 |  |  |  |  |  | CN(C(=O)CCCCC1CCN(S(=O)(=O)C2(C(=O)NO)CCOCC2)CC1)c1ccc(OC(F)(F)F)cc1 [Example A163]
16 | 5.56 | 9.85 | 9.57 | 5.89 | 10.22 |  |  |  |  |  | O=C(NO)C1(S(=O)(=O)N2CCC(c3ccc(CCC(F)(F)C(F)(F)F)cn3)CC2)CCC1 [Example A126]
17 | 6.14 | 9.48 | 9.05 | 5.58 | 9.77 |  |  |  |  |  | O=C(NO)C1(S(=O)(=O)N2CCC(c3ccc(CCC(F)(F)C(F)(F)F)cn3)CC2)CC=CC1 [Example A101]
18 | < 5.00 | 6.51 | 8.69 | < 5.00 | 8.97 |  |  |  |  |  | O=C(NO)C1(S(=O)(=O)N2CCN(c3ccc(CCCC(F)(F)F)cc3)CC2)CCN(CC(F)(F)F)CC1 [Example A183]
19 | 5.16 | 6.46 | 6.66 | < 5.00 | 8.47 |  |  |  |  |  | CN(Cc1ccco1)C(=O)CCCC1CCN(S(=O)(=O)C2(C(=O)NO)CCOCC2)CC1 [Example A141]
20 | 5.72 | 8.97 | 9.11 | 5.41 | 8.95 |  |  |  |  |  | O=C(NO)C1(S(=O)(=O)N2CCC(c3ccc(C#CCCO)cn3)CC2)CCOCC1 [Example A133]
21 | 5.27 | 9.03 | 9.42 | 5.94 | 9.10 |  |  |  |  |  | O=C(NO)C1(S(=O)(=O)N2CCN(c3nnn(Cc4ccccc4)n3)CC2)CCOCC1 [Example A114]
22 | < 5.00 | 8.99 | 8.11 | 5.04 | 8.36 |  |  |  |  |  | O=C(NO)C1(S(=O)(=O)N2CCC(c3cnc(CCC4CC4)cn3)CC2)CCOCC1 [Example A110]
23 | 5.20 | 8.42 | 8.89 | 5.67 | 9.67 |  |  |  |  |  | O=C(NO)C1(S(=O)(=O)N2CCC(c3ccc(CCc4cccs4)cn3)CC2)CCOCC1 [Example A102]
24 | 5.28 | 8.05 | 8.48 | < 5.00 | 9.08 |  |  |  |  |  | O=C(NO)C1(S(=O)(=O)N2CCC(c3ccc(C(F)(F)CCC(F)(F)F)cn3)CC2)CCOCC1 [Example A128]
25 | < 5.00 | 9.31 | 8.60 | 5.37 | 8.72 |  |  |  |  |  | CCOCc1ccc(C2CCN(S(=O)(=O)C3(C(=O)NO)CCOCC3)CC2)nc1 [Example A179]
